Experimental data reported in US7973079B2, “Methods and compounds for treating retinol-related diseases” (Revision Therapeutics, Inc., priority 2007, dated 2011).

Columns and labels:
[1] = system: panel of six cytochrome P450 isozymes; assay: Cytochrome P450 inhibition profile (panel of six isozymes); format: in vitro ADME
RBP4-TTR interaction = RBP4-TTR interaction (Homo sapiens, UniProt P02753); assay: High throughput in vitro assay detecting inhibition of RBP-TTR interaction; format: binding; settings: Table 1, read-out: Apparent 50 IC
Procedure: In some embodiments, the modulators disclosed herein are also used in in vitro assays for detecting perturbations in RBP or TTR activity. For example, the modulator is added to a sample comprising RBP, TTR and retinol to detect complex disruption. A component, for example, RBP, TTR, retinol or the modulator, is labeled to determine if disruption of complex formation occurs. For example, complex formation and subsequent disruption is detected and/or measured through conventional means, such as the sandwich assays disclosed above. Other detection systems are also used to detect modulation of RBP or TTR binding, for example, FRET detection of RBP-TTR-retinol complex formation.
The optimal dose of compounds of Formula (I) or (II) to block formation of A2E in abca4-1 mice is determined using a standard dose escalation study. In order to determine the range of doses which will be employed, a high throughput, in vitro assay which detects modulators that inhibit RBP-TTR interaction has been developed. […] An illustrative in vivo approach, utilizing a compound having the structure of Formula (I) or (II) is presented below.

RBP4+/+, ABCA4−/− mice = assay: Serum retinol in HPR-treated mice compared with genetic reduction of RBP4; format: in vivo; settings: HPR for a 28-day period, ABCA4+/− mice (>50% reduction)
From the text: FIG. 6. Genetic modulation of RBP4 in abca4 mutant mice: effects on serum retinol, RBP4 and toxic retinal fluorophores. A line of mice which expresses heterozygous mutations in RBP4 and ABCA4 (RBP4+/−, ABCA4+/−) was generated in order to determine if genetic reduction of RBP4 would be sufficient to reduce serum levels of retinol, RBP4 and toxic retinal fluorophores within the RPE. Serum retinol concentrations in RBP4+/−, ABCA4+/− mice were reduced by greater than 50% compared to mice with the normal complement of RBP (RBP4+/+, ABCA4−/−). […] Reductions in serum retinol correlated directly with reductions in RBP4, as determined by immunoblot analysis. Western blot identification of RBP4 in the various mouse lines is shown in panel B. Histological analysis were also performed. Tissue sections from RBP4+/+, ABCA4+/− mice (panel C), RBP4+/−, ABCA4+/− (panel D) and RBP4+/+, ABCA4+/+ (panel E) were analyzed by fluorescence microscopy.
Exploration of a non-pharmacological means of reducing lipofuscin fluorophores in order to validate our therapeutic approach based upon reduction of RBP levels in a patient will be performed. In this study, RBP protein levels will be reduced through genetic manipulation. Two new lines of mice expressing heterozygous mutations in retinol binding protein (RBP4) are generated. […]

Row | inhibition at 2 μM [1] [%] | IC50 (RBP4-TTR interaction) [nM] | SMILES | degree of serum retinol reduction (RBP4+/+, ABCA4−/− mice)
1 | < 10 | 400 | CC(C)(C)c1cc(Cl)ccc1OCC1CCC(C(=O)O)C1 (centres unmarked) [3-((2-tert-butyl-4-chlorophenoxy)methyl)cyclopentanecarboxylic acid] | –
2 | ~15 | 500 | CC(C)(C)c1cc(Cl)ccc1OCCCCCCC(=O)O [7-(2-tert-butyl-4-chlorophenoxy)heptanoic acid] | –
3 | < 10 | 160 | CC(C)(C)c1cc(Cl)ccc1OCC1CCCC(C(=O)O)C1 (centres unmarked) [3-((2-tert-butyl-4-chlorophenoxy)methyl)cyclohexanecarboxylic acid] | –
4 | ~15 | 1000 | CC(C)(C)c1cc(Cl)ccc1OCCCC(=O)O [4-(2-tert-butyl-4-chlorophenoxy)butanoic acid] | –
5 | ~50 | 1000 | CC(C)(C)c1cc(Cl)ccc1OCCCCC(=O)Nc1ccc(O)cc1 [5-(2-tert-Butyl-4-chlorophenoxy)-N-(4-hydroxyphenyl)pentanamide] | –
6 | < 10 | – | CC(C)(C)c1cc(Cl)ccc1OCCCCC(=O)Nc1ccc(C(=O)O)cc1 [4-(5-(2-tert-Butyl-4-chlorophenoxy)pentanamido)benzoic acid] | –
7 | < 10 | 1000 | CC(C)(C)c1cc(Cl)ccc1OCCCCC(=O)Nc1ccc(CC(=O)O)cc1 [2-(4-(5-(2-tert-butyl-4-chlorophenoxy)pentanamido)phenyl)acetic acid] | –
8 | < 10 | – | CC(C)(C)c1cc(Cl)ccc1OCC1CCC(C(=O)Nc2ccc(O)cc2)C1 (centres unmarked) [3-((2-tert-butyl-4-chlorophenoxy)methyl)-N-(4-hydroxyphenyl)cyclopentanecarboxamide] | –
9 | ≤ 10 | 100 | CC(C)(C)c1cc(Cl)ccc1OCCCCC(=O)O [5-(2-tert-Butyl-4-chlorophenoxy)pentanoic Acid] | –
10 | – | – | CC1=C(/C=C/C(C)=C/C=C/C(C)=C/C(=O)Nc2ccc(O)cc2)C(C)(C)CCC1 [HPR, fenretinide] | comparable
11 | ~40 | 1000 | CC(C)(C)c1cc(Cl)ccc1OCCCCCCC(=O)Nc1ccc(O)cc1 [7-(2-tert-butyl-4-chlorophenoxy)-N-(4-hydroxyphenyl)heptanamide] | –
12 | < 10 | – | CC(C)(C)c1cc(Cl)ccc1OCC1CCC(C(=O)Nc2ccc(C(=O)O)cc2)C1 (centres unmarked) [4-(3-((2-tert-butyl-4-chlorophenoxy)methyl)cyclopentanamido)benzoic acid] | –
